Measurements reported in patent US11612612B2, “Pharmaceutical compositions” (CIPLA LIMITED, priority 2016, dated 2023).
Where a name gives a salt, the structure may show the parent alone.

Key:
in vitro [1] = settings: human, Caco-2
Protocol: (§1) Cells were treated with drugs as follows:
(§2) Stock preparations: 10 mM stocks of all the drugs were prepared in DMSO. The test concentrations were further prepared in HBSS buffer containing 10 mM MES hydrate pH 6.8 as per the plate plan. Also, HBSS buffer with 10 mM HEPES with pH 7.4 was prepared.
(§3) The sample were analyzed on LCMS-MS.

Caco-2 cells [2] = experiment: in vitro
Protocol: as §1, §2, §3

[3] = male, Wistar, rat, in vivo, 300 mg
Protocol: The objective of this non-GLP study was to determine the pharmacokinetics of the TDF alone and in combinations with piperine in different groups of male Wistar rats after single dose intravenous administration and oral administration. This study was performed with approval from the Institutional Animal Ethics Committee (IAEC) in accordance with the requirement of Committee for the Purpose of Control and Supervision of Experiments on Animals (CPCSEA), India.
An equal volume (4.72 mL) of each formulation was mixed in separate vials to get 5 mL/kg.
An equal volume (5.61 mL) of each formulation was mixed in separate vials to get 5 mL/kg.
Bioanalysis was performed using fit-for-purpose LC-MS/MS method for the quantification of TDF and PMPA in rat plasma samples. […]
Plasma pharmacokinetic parameters were calculated using the non-compartmental analysis tool of Phoenix software (Version 6.3) and were determined from individual animals in each group. The peak plasma concentration (Cmax), time to achieve peak plasma concentration (Tmax), the area under the plasma concentration-time curve (AUC0-t and AUCinf), AUC Extra (%), elimination half-life (T½), clearance (CL), volume of distribution Vd (L/kg) and Mean residence time (MRT) were calculated from the intravenous group. […]

[4] = Caco-2 bidirectional assay, effect of piperine and tetrahydropiperine on permeability of TDF; settings: human, Caco-2, pH 7.4
Protocol: Caco-2 cells were cultured in MEM media with 10% serum and seeded at a density of 75000 cells per mL and cultured for 21 days in a 24-well trans-well plate at 37° C., 5% CO2. The monolayer integrity was checked intermittently (Day 0-21) using Trans Epithelial Electric Resistance (TEER). Cells were treated with drugs as follows:
(§5) 400 μL samples were added to the wells as per the plate setup to the apical side in duplicates with 800 μL HBSS pH 7.4 in the basal wells. Samples were collected at 60, 90 and 120 minutes from the basal side. Mass balance samples at 0 and 120 minutes were collected from the apical side.
For B-A, 800 μL of the respective dilutions were added to the basal side in duplicates with 400 μL HBSS pH 7.4 in the apical wells. Samples were collected at 60, 90 and 120 minutes from the apical side. Mass balance samples at 0 and 120 minutes were collected from the basal side.
The sample were analyzed on LCMS-MS. At the end of the experiment the monolayer integrity was checked using and Lucifer yellow, calculating the % rejection of Lucifer yellow by incubating cells with 100 μg/mL Lucifer.
(§6) For Lucifer yellow, % Lucifer Yellow Passage=[RFU (test)−RFU (blank)/RFU (equilibrium)−RFU (blank)]*100

[5] = Caco-2 bidirectional assay, effect of piperine on permeability of dolutegravir; settings: human, Caco-2, pH 7.4
Protocol: as §1
(§4) The samples were analyzed on LCMS-MS.

Caco-2 cells [6] = experiment: as above; settings: in words
Protocol: as §1, §4

P-gp = P-gp (Homo sapiens, UniProt P08183); experiment: in vitro; assay type: cell-based; settings: pH 7.4, drug alone (Digoxine 10 μM; TAF 100 μM)
Sequence of P-gp (P08183 whole entry): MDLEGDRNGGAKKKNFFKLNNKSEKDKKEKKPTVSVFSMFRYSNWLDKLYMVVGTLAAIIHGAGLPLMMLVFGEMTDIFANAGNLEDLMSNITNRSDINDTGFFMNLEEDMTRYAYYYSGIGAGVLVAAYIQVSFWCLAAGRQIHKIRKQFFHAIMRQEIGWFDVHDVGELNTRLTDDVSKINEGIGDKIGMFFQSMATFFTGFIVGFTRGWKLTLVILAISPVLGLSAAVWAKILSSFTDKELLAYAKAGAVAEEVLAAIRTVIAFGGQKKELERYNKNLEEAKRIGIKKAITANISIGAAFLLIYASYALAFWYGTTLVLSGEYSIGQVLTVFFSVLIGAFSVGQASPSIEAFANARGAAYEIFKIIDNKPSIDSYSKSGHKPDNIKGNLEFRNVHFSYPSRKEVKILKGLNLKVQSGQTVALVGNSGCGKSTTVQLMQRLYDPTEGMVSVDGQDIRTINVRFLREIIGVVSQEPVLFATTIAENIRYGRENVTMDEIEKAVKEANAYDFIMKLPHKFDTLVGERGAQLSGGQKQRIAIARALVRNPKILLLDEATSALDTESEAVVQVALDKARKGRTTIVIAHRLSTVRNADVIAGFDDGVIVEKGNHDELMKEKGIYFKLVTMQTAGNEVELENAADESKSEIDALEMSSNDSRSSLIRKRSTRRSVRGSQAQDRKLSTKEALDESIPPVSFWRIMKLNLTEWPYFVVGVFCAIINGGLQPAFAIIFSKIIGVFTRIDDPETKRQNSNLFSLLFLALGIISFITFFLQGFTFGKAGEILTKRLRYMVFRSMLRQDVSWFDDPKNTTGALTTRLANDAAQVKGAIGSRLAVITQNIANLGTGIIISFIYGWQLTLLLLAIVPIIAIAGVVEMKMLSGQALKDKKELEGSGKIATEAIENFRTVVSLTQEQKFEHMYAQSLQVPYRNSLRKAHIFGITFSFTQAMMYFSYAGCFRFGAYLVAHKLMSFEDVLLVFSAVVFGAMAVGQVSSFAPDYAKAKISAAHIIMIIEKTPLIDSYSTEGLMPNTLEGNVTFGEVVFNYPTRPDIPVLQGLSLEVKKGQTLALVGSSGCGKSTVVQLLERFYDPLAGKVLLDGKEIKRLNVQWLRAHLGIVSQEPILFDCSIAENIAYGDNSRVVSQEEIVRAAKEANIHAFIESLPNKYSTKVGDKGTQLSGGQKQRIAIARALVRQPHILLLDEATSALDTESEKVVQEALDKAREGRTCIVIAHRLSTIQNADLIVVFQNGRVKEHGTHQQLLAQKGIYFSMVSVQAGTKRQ
Protocol: as §1, §3

in vitro [7] = settings: human, Caco-2, pH 7.4
Protocol: Caco-2 cells were cultured in MEM media with 10% serum and seeded at a density of 75000 cells per mL and cultured for 21 days in a 24-well trans-well plate at 37° C., 5% CO2. The monolayer integrity was checked intermittently (Day 0-21) using Trans Epithelial Electric Resistance (TEER).
as §5
For B-A, 800 μL of the respective dilutions were added to the basal side in duplicates with 400 μL HBSS pH 7.4 in the apical wells. Samples were collected at 60, 90 and 120 minutes from the apical side. Mass balance samples at 0 and 120 minutes were collected from the basal side. The sample were analyzed on LCMS-MS.
At the end of the experiment the monolayer integrity was checked using Lucifer yellow, and calculating the % rejection of Lucifer yellow by incubating cells with 100 μg/mL Lucifer.
as §6

[8] = Caco-2 bidirectional assay, effect of piperine on permeability of darunavir; assay type: in vitro ADME; settings: human, Caco-2, pH 7.4
Protocol: as §1, §3

SMILES: CC(C)OC(=O)OCOP(=O)(CO[C@H](C)Cn1cnc2c(N)ncnc21)OCOC(=O)OC(C)C [TDF, tenofovir disoproxil fumarate]
- Papp A→B at 120 min, 50 μM (in vitro [1]): 6.58 ×10⁻⁶ cm/s
- Papp A→B at 120 min, 100 μM (in vitro [1]): 6.35 ×10⁻⁶ cm/s
- Permeability classification (Caco-2 cells [2]; Caco-2): low to moderately permeable
- Bioavailability [3]: 34.39±6.07
- Papp A→B at 120 min [4]: 2.55 ×10⁻⁶ cm/s
- Papp A→B at 120 min, 200 μM [4]: 3.77 ×10⁻⁶ cm/s
- Papp B→A at 120 min [4]: 15.2 ×10⁻⁶ cm/s
- Papp B→A at 120 min, 200 μM [4]: 14.3 ×10⁻⁶ cm/s
- efflux ratio at 120 min, 200 μM [4]: 3.79

SMILES: C[C@@H]1CCO[C@H]2Cn3cc(C(=O)NCc4ccc(F)cc4F)c(=O)c(O)c3C(=O)N12 [Dolutegravir]
- Papp A→B at 120 min [5]: 40.2 ×10⁻⁶ cm/s
- Papp B→A at 120 min [5]: 84.3 ×10⁻⁶ cm/s
- Permeability classification (Caco-2 cells [6]): high permeable

SMILES: CC(C)OC(=O)[C@H](C)N[P@](=O)(CO[C@H](C)Cn1cnc2c(N)ncnc21)Oc1ccccc1 [TAF, tenofovir alafenamide fumarate]
- Papp A→B at 120 min, 50 μM (in vitro [1]): 5.86 ×10⁻⁶ cm/s
- Papp A→B at 120 min, 100 μM (in vitro [1]): 5.39 ×10⁻⁶ cm/s
- Permeability classification (Caco-2 cells [2]; in words): low to moderately permeable
- inhibition at 120 min, 100 μM (P-gp): 0%
- Papp A→B at 120 min (in vitro [7]): 3.45 ×10⁻⁶ cm/s
- Papp B→A at 120 min (in vitro [7]): 17.8 ×10⁻⁶ cm/s

SMILES: CC(C)CN(C[C@@H](O)[C@H](Cc1ccccc1)NC(=O)O[C@H]1CO[C@H]2OCC[C@H]21)S(=O)(=O)c1ccc(N)cc1 [Darunavir]
- Papp A→B at 120 min [8]: 8.83 ×10⁻⁶ cm/s
- Papp B→A at 120 min [8]: 21.7 ×10⁻⁶ cm/s

SMILES: C[C@H]1O[C@@H](O[C@H]2[C@@H](O)C[C@H](O[C@H]3[C@@H](O)C[C@H](O[C@H]4CC[C@@]5(C)[C@H](CC[C@@H]6[C@@H]5C[C@@H](O)[C@]5(C)[C@@H](C7=CC(=O)OC7)CC[C@]65O)C4)O[C@@H]3C)O[C@@H]2C)C[C@H](O)[C@@H]1O [Digoxin]
- Papp A→B at 120 min [5]: 4.5 ×10⁻⁶ cm/s
- Papp B→A at 120 min [5]: 28.9 ×10⁻⁶ cm/s
- Papp A→B at 120 min [8]: 1.12 ×10⁻⁶ cm/s
- Papp B→A at 120 min [8]: 14.2 ×10⁻⁶ cm/s
- Papp A→B (in vitro [7]): 1.94 ×10⁻⁶ cm/s
- Papp B→A (in vitro [7]): 20.5 ×10⁻⁶ cm/s
- Papp A→B at 120 min [4]: 0.816 ×10⁻⁶ cm/s
- Papp B→A at 120 min [4]: 15.5 ×10⁻⁶ cm/s
